Experiments:
[1] = test system: WI-38; experiment: Cytotoxicity activity against human WI38 cells measured after 48 hrs by MTT assay; type: cell-based; details: WI-38, 48 h
[2] = test system: HepG2; experiment: Antiproliferative activity against human HepG2 cells measured after 48 hrs by MTT assay; type: functional, cell-based; details: HepG2, 48 h
[3] = test system: PC-3; experiment: Antiproliferative activity against human PC3 cells measured after 48 hrs by MTT assay; type: functional, cell-based; details: PC-3, 48 h
[4] = test system: A549; experiment: Antiproliferative activity against human A549 cells measured after 48 hrs by MTT assay; type: functional, cell-based; details: A549, 48 h

| Structure (SMILES) | IC50 [2] [µM] | IC50 [3] [µM] | IC50 [4] [µM] | IC50 [1] [µM] |
| --- | --- | --- | --- | --- |
| C[C@H]1OC(=O)[C@]23CC[C@H]4[C@@H](CC[C@H]5C[C@@H](O)CC[C@@]54C)[C@@]2(O)CC[C@H]13 | > 50 | > 50 | > 50 | > 50 |
| C[C@H]1OC(=O)[C@]23CC[C@@H]4[C@@]5(C)CC[C@H](O)CC5=CC[C@@]4(O)[C@@]2(O)CC[C@H]13 | > 50 | > 50 | > 50 | > 50 |
| CO[C@H]1C[C@@H](O[C@H]2[C@@H](OC)C[C@H](O[C@H]3CC[C@@]4(C)C(=CC[C@@H]5[C@@H]4CC[C@]46C(=O)O[C@H](C)[C@H]4CC[C@]56O)C3)O[C@@H]2C)O[C@H](C)[C@H]1O | > 50 | > 50 | > 50 | > 50 |
| C[C@H]1OC(=O)[C@]23CC[C@H]4[C@@H](C(C=O)=C5C[C@@H](O)CC[C@@]54C)[C@@]2(O)CC[C@H]13 | > 50 | > 50 | > 50 | > 50 |
| CO[C@H]1C[C@H](O[C@H]2CC[C@@]3(C)C(=CC[C@H]4C5=CC(=O)[C@@H]6[C@@H](C)OC(=O)[C@]56CC[C@@H]43)C2)O[C@H](C)[C@H]1O[C@@H]1C[C@@H](OC)[C@H](O)[C@@H](C)O1 | 2 | 3.6 | 2.4 | 5.5 |
| CO[C@H]1C[C@H](O[C@H]2CC[C@@]3(C)C(=CC[C@@H]4[C@@H]3CC[C@]35C(=O)O[C@H](C)[C@H]3CC[C@]45O)C2)O[C@H](C)[C@H]1O[C@@H]1C[C@H](OC)[C@H](O[C@@H]2C[C@@H](OC)[C@H](O)[C@@H](C)O2)[C@@H](C)O1 | > 50 | > 50 | > 50 | > 50 |
| CO[C@H]1C[C@@H](O[C@H]2[C@@H](O)C[C@H](O[C@H]3CC[C@@]4(C)C(=CC[C@@H]5[C@@H]4CC[C@]46C(=O)O[C@H](C)[C@H]4CC[C@]56O)C3)O[C@@H]2C)O[C@H](C)[C@H]1O | > 50 | > 50 | > 50 | > 50 |
| CO[C@H]1C[C@@H](O[C@H]2[C@@H](O)C[C@H](O[C@H]3CC[C@@]4(C)[C@@H](CC[C@H]5C6=CC(=O)[C@@H]7[C@@H](C)OC(=O)[C@]67CC[C@@H]54)C3)O[C@@H]2C)O[C@H](C)[C@H]1O | > 50 | > 50 | > 50 | > 50 |
| CO[C@H]1C[C@H](O[C@H]2CC[C@@]3(C)[C@@H](CC[C@H]4C5=CC(=O)[C@@H]6[C@@H](C)OC(=O)[C@]56CC[C@@H]43)C2)O[C@H](C)[C@H]1O[C@H]1C[C@@H](OC)[C@H](O)[C@@H](C)O1 | > 50 | > 50 | > 50 | > 50 |
| CO[C@H]1C[C@H](O[C@H]2CC[C@@]3(C)C(=C(C=O)[C@@H]4[C@@H]3CC[C@]35C(=O)O[C@H](C)[C@H]3CC[C@]45O)C2)O[C@H](C)[C@H]1O | > 50 | > 50 | > 50 | > 50 |

Now from value to compound, other results behind:

| IC50 [2] [µM] | IC50 [3] [µM] | IC50 [4] [µM] | Structure (SMILES) | IC50 [1] [µM] |
| --- | --- | --- | --- | --- |
| 0.5 to 0.8 | 0.5 to 0.8 | 0.5 to 0.8 | COc1cccc2c1C(=O)c1c(O)c3c(c(O)c1C2=O)C[C@@](O)(C(=O)CO)C[C@@H]3O[C@H]1C[C@H](N)[C@H](O)[C@H](C)O1 [DOXORUBICIN] |  |
| > 50 | > 50 | > 50 | C[C@H]1O[C@@H](O[C@H]2CC[C@@]3(C)C(=CC[C@H]4C5=CC(=O)[C@@H]6[C@@H](C)OC(=O)[C@]56CC[C@@H]43)C2)C[C@H](O)[C@@H]1O | > 50 |
| > 50 | > 50 | > 50 | CO[C@H]1C[C@H](O[C@H]2CC[C@@]3(C)[C@@H](CC[C@H]4C5=CC(=O)[C@@H]6[C@@H](C)OC(=O)[C@]56CC[C@@H]43)C2)O[C@H](C)[C@H]1O | > 50 |
| > 50 | > 50 | > 50 | C[C@H]1O[C@@H](O[C@H]2CC[C@@]3(C)[C@@H](CC[C@H]4C5=CC(=O)[C@@H]6[C@@H](C)OC(=O)[C@]56CC[C@@H]43)C2)C[C@H](O)[C@@H]1O | > 50 |
| > 50 | > 50 | > 50 | CO[C@H]1C[C@@H](O[C@@H]2[C@H](O)C[C@H](O[C@H]3CC[C@@]4(C)C(=CC[C@H]5C6=CC(=O)[C@@H]7[C@@H](C)OC(=O)[C@]67CC[C@@H]54)C3)O[C@@H]2C)O[C@H](C)[C@H]1O | > 50 |

From ChEMBL document CHEMBL4392877, “Cytotoxic Pregnane Steroidal Glycosides from Chonemorpha megacalyx” (J Nat Prod, 2019)
